From patent US10633374B2, “Small molecule based antibody-recruiting compounds for cancer treatment” (YALE UNIVERSITY, priority 2015, dated 2020)

What was measured:
uPAR (uPA binding site) = molecular target: T1, uPAR (uPA binding site) (Homo sapiens, UniProt Q03405); test: Competitive ELISA uPAR binding assay (immobilized urokinase); settings: at the uPA binding site
T1 construct: purchased R&D systems
Procedure: The affinity of ARM-U2 derivatives differing in both the length of the DNP-linker substituted at position 2 of ring C and the display of negative charge density (FIG. 8, Table 1) for uPAR were assayed using a competitive ELISA binding assay. The assay involves the immobilization of urokinase, a natural high affinity ligand for uPAR followed by the addition of a fixed concentration of recombinant uPAR protein and increasing concentrations of ARM-U2 which competes with urokinase for binding to the uPA binding site of uPAR. Following several washing steps, the amount of uPAR bound is quantified by a biotinylated anti-uPAR antibody and avidin-HRP and can be fit to a competitive binding model allowing for the extraction of the uPAR/ARM-U2 Kd.
All ARM-U2 derivatives were assessed for their ability to bind selectively to recombinant uPAR in vitro using a competitive ELISA binding assay. DMSO stock solutions of each ARM-U2 derivative stored at −20° C. were titrated into wells pre-coated with human urokinase (isolated from human urine, ProSpec 1 mg/ml deI water 18.5 μM) in the presence of uPAR. Selective binding to uPAR by ARM-U2 at the uPA binding site competes with uPAR-uPA binding which is required for a positive UV 450 nm absorbance signal. Increasing concentrations of ARM-U2 displace increasing amounts of uPAR from uPA which is detected by anti-uPAR/biotin labeled antibodies followed by avidin-HRP. The sigmoidal binding isotherm of absorbance at 450 nm vs log ARM-U2 concentration can then by fit by non-linear regression analysis to obtain the IC50 for ARM-U2/uPAR binding (Equation S2) which can then be translated into a KI for ARM-U2/uPAR binding using a competitive binding model adapted from the Cheng-Prusoff equation relating KI to IC50 (Equation S3). The ELISA experiments were performed as followed: To Corning high binding 96 well flat bottom plates was added 100 μl/well of 100 nM urokinase in sterile PBS. The plates were sealed and left to incubate at 4° C. overnight. The plates were then washed 1× with 200 μl wash buffer (PBS+0.05% Tween-20) and 1× with 400 μl wash buffer. The plates were blotted on paper towel and blocked for 1 h shaking at room temp with 300 μl of a solution of thermo superblock in PBS per well. Molecule dilutions into solutions of a fixed concentration (10 nM) of uPAR were prepared in 0.025% triton-X/PBS on a separate low binding plate during the blocking hour. The plates were again washed followed by the addition of 100 μl of the ARM-U2/uPAR solution with 0.1% final DMSO concentration. The solutions were mixed by multichannel pipette, sealed, and incubated for 2 h with shaking at room temperature. The plates were then washed 1× with 200 μl wash buffer (PBS+0.05% Tween-20) and 2× with 400 μl wash buffer. The plates were blotted on a paper towel followed by the addition of 100 μl/well of a solution of biotinylated anti-uPAR antibody in 1% BSA/PBS. (R&D Systems, 3.3 μl taken from 50 μg/250 μl-1000× stock) and incubation with shaking for 1 h at room temp. The plates were washed 1× with 200 μl wash buffer and 2× with 400 μl wash buffer and blotted on a paper towel. 100 μl of avidin-HRP (stock −500× from e-bioscience) were added per well, incubated 20 min with shaking at room temp followed by washing 1× with 200 μl wash buffer and 3× with 400 μl wash buffer. The plates were blotted dry with paper towel and 100 μl of TMB substrate was added to each well. The emergence of blue color was monitored and the reaction quenched with the addition of 50 μl of 2M sulfuric acid to each well followed by measuring the absorbance at 450 nm using a fluorescence plate reader. […]

recombinant uPAR = molecular target: T2, recombinant uPAR (Homo sapiens, UniProt Q03405); test: Fluorescence quenching titration of ARM-U2 derivatives with uPAR; format: binding; settings: fluorescence titration of 100 nM derivative with increasing uPAR; read-out: Kd, solution equilibrium dissociation constant with uPAR
T2 construct: purchased R&D systems
T2 sequence (Q03405 23-305): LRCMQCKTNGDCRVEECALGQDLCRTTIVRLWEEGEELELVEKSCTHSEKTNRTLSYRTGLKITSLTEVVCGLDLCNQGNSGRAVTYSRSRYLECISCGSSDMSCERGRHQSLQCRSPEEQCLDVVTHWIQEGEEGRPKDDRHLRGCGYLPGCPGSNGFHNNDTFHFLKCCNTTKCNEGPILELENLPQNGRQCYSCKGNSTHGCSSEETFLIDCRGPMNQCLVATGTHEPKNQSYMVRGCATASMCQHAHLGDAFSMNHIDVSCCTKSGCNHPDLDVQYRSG
Procedure: Selected ARM-U2 derivatives were assayed for their ability to bind recombinant uPAR using a fluorescence quenching assay. […] Increasing concentrations of recombinant uPAR were mixed with each compound containing aliquot and the fluorescence of the solution measured following 1 h equilibration times. […] To confirm that the observation of uPAR dependent fluorescence quenching was indeed due to specific binding to uPAR and to validate ARM-U2 binding to uPAR specifically via the uPA binding site, a direct binding ELISA assay was developed. In this assay, clear 96-well high-binding plates from CoStar, were loaded with 100 μl/well of 50 nM recombinant uPAR 807-UK-100-CF from R&D systems prepared from a 100 μg/ml (approx. 2.1 μM) stock of uPAR in PBS and left overnight at room temperature to equilibrate. Following equilibration, the plate was washed with wash buffer 1× (400 μl/well of 0.05% Tween/PBS), blotted dry and blocked for 1 hr with 300 ul/well of 2% BSA/PBS. Following blocking, the plate was washed with 400 ul of the wash buffer and blotted dry. […] The absorbance at 450 nm was measured using an in-house Perkin-Elmer fluorescence plate reader.
All ARM-U2 derivatives were assessed for their ability to bind selectively to recombinant uPAR in vitro using a competitive ELISA binding assay. […] Selective binding to uPAR by ARM-U2 at the uPA binding site competes with uPAR-uPA binding which is required for a positive UV 450 nm absorbance signal. Increasing concentrations of ARM-U2 displace increasing amounts of uPAR from uPA which is detected by anti-uPAR/biotin labeled antibodies followed by avidin-HRP. The sigmoidal binding isotherm of absorbance at 450 nm vs log ARM-U2 concentration can then by fit by non-linear regression analysis to obtain the IC50 for ARM-U2/uPAR binding (Equation S2) which can then be translated into a KI for ARM-U2/uPAR binding using a competitive binding model adapted from the Cheng-Prusoff equation relating KI to IC50 (Equation S3). […]

anti-DNP antibodies = test: Affinity for anti-DNP antibodies; format: binding
immobilized uPAR = molecular target: T3, immobilized uPAR (Homo sapiens, UniProt Q03405); test: Direct ELISA binding assay on immobilized uPAR
T3 construct: purchased R&D systems 807-UK-100-CF
T3 sequence (Q03405 23-305): as above
Procedure: Selected ARM-U2 derivatives were assayed for their ability to bind recombinant uPAR using a fluorescence quenching assay. The compounds stored at −20° C. as DMSO stocks were diluted into PBS aliquots at a fixed 50 nM concentration. Increasing concentrations of recombinant uPAR were mixed with each compound containing aliquot and the fluorescence of the solution measured following 1 h equilibration times. […] To confirm that the observation of uPAR dependent fluorescence quenching was indeed due to specific binding to uPAR and to validate ARM-U2 binding to uPAR specifically via the uPA binding site, a direct binding ELISA assay was developed. In this assay, clear 96-well high-binding plates from CoStar, were loaded with 100 μl/well of 50 nM recombinant uPAR 807-UK-100-CF from R&D systems prepared from a 100 μg/ml (approx. 2.1 μM) stock of uPAR in PBS and left overnight at room temperature to equilibrate. Following equilibration, the plate was washed with wash buffer 1× (400 μl/well of 0.05% Tween/PBS), blotted dry and blocked for 1 hr with 300 ul/well of 2% BSA/PBS. Following blocking, the plate was washed with 400 ul of the wash buffer and blotted dry. […] The absorbance at 450 nm was measured using an in-house Perkin-Elmer fluorescence plate reader.

T1 sequence (Q03405 23-305): as above

| SMILES | uPAR binding affinity (order of magnitude) (uPAR (uPA binding site)) | Kd (recombinant uPAR) | affinity for anti-DNP antibodies (anti-DNP antibodies) | binding to immobilized uPAR vs parent derivative (immobilized uPAR) |
| --- | --- | --- | --- | --- |
| O=C(O)c1cccc(Nc2cc(N3CCC[C@H](C(=O)NCCCOCCOCCOCCCNc4ccc([N+](=O)[O-])cc4[N+](=O)[O-])C3)c3noc4c3c2C(=O)c2ccccc2-4)c1 [1-ABT-1] | triple digit nanomolar binding affinity | 0.275 µM |  |  |
| O=C1c2ccccc2-c2onc3c(N4CCC[C@@H](C(=O)NCCCOCCOCCOCCCNc5ncccn5)C4)cc(Nc4ccc(S(=O)(=O)O)cc4S(=O)(=O)O)c1c23 [6-ABT-4] |  |  | no affinity for anti-DNP antibodies |  |
| O=C1c2ccccc2-c2onc3c(N4CCC[C@H](C(=O)NCCOCCOCCOCCOCCOCCOCCOCCNc5ccc([N+](=O)[O-])cc5[N+](=O)[O-])C4)cc(Nc4ccc(S(=O)(=O)O)cc4S(=O)(=O)O)c1c23 [6-ABT-2] |  | 0.066 µM |  | much higher affinity than parent derivative 1-ABT-1 |
